# Source: patent US20040039053A1, “Use of(-) (3-halomethylphenoxy) (4-halophenyl) acetic acid derivatives for treatment of insulin resistance, type 2 diabetes, hyperlipidemia and hyperuricemia” (priority 2000, published 2004)
# Where “and” joins values, the source holds several entries; their conditions need not be identical. Equal entries are not always repeated.
# Assay: Pharmacokinetic study in SD rats, chiral HPLC of plasma halofenic acids (Example 14)
# Type: in vivo
# Details: single oral dose of (−) halofenate 50 mg/kg
# Experimental: Male 225-250 g SD rats were purchased from Charles River. […] A catheter was placed in the left carotid artery under sodium pentobarbital (50 mg/kg i.p.) and animals were allowed to recover for 2 days before treatment. […] The gavage volume was 5 ml/kg. Blood samples were collected at 1, 2, 4, 6, 8, 12, 24, 48, 72, 96 and 120 hours post dose. The plasma samples were analyzed for each enantiomeric acid ((−) halofenic acid and (+) halofenic acid) by a chiral specific HPLC assay, since the esters are prodrugs, which are designed to convert to their respective enantiomeric acids in vivo.
structure (smiles),measurement,setting,value
"O=C(O)C(Oc1cccc(C(F)(F)F)c1)c1ccc(Cl)cc1 (single isomer, unassigned; (-)) [(−) halofenic acid, (−) 4-chlorophenyl-(3-trifluoromethylphenoxy)-acetic acid]",concentration at 96 h,"male, SD, rat, plasma, oral, 50 mg/kg, individual rats 8, 11",31.1 µg/mL
same,concentration at 120 h,"male, SD, rat, plasma, oral, 50 mg/kg, rat 8",20.3 µg/mL
same,plasma concentration at 0 hour,"individual rats 8, 9, 11",BQL (BQL = Below Quantifiable Limit < 1.00 μg/mL)
same,plasma concentration at 1 hour,"individual rats 8, 9, 11",81.2 µg/mL and 23.7 µg/mL and 61.0 µg/mL
same,plasma concentration at 2 hours,"individual rats 8, 9, 11",100.1 µg/mL and 30.4 µg/mL and 87.8 µg/mL
same,plasma concentration at 4 hours,"individual rats 8, 9, 11",122.3 µg/mL and 36.9 µg/mL and 94.5 µg/mL
same,plasma concentration at 6 hours,"individual rats 8, 9, 11",128.3 µg/mL and 56.5 µg/mL and 116.3 µg/mL
same,plasma concentration at 8 hours,"individual rats 8, 9, 11",128.2 µg/mL and 79.0 µg/mL and 127.8 µg/mL
same,plasma concentration at 12 hours,"individual rats 8, 9, 11",135.3 µg/mL and 80.6 µg/mL and 104.8 µg/mL
same,plasma concentration at 24 hours,"individual rats 8, 9, 11",82.5 µg/mL and 73.1 µg/mL and 66.5 µg/mL
same,plasma concentration at 48 hours,"individual rats 8, 9, 11",56.2 µg/mL and 44.5 µg/mL and 47.1 µg/mL
same,plasma concentration at 72 hours,"individual rats 8, 9, 11",39.7 µg/mL and 37.4 µg/mL and 30.8 µg/mL
same,plasma concentration at 96 hours,"individual rats 8, 11",24.6 µg/mL
